Test results reported in ChEMBL document CHEMBL3046138, “5-Aryl-1,3,4-oxadiazole-2-thiols as a New Series of trans-Cinnamate 4-Hydroxylase Inhibitors” (J Pestic Sci, 2004).

Key:
[1] = target: T1, Trans-cinnamate 4-monooxygenase (Populus kitakamiensis, UniProt Q43054); assay: Inhibition of Populus sieboldii x Populus grandidentata trans-cinnamate 4-hydroxylase expressed in Saccharomyces cerevisiae BJ2168 assessed as inhibition of hydroxylation of cinnamic acid after 60 min
T1 sequence (Q43054 whole entry): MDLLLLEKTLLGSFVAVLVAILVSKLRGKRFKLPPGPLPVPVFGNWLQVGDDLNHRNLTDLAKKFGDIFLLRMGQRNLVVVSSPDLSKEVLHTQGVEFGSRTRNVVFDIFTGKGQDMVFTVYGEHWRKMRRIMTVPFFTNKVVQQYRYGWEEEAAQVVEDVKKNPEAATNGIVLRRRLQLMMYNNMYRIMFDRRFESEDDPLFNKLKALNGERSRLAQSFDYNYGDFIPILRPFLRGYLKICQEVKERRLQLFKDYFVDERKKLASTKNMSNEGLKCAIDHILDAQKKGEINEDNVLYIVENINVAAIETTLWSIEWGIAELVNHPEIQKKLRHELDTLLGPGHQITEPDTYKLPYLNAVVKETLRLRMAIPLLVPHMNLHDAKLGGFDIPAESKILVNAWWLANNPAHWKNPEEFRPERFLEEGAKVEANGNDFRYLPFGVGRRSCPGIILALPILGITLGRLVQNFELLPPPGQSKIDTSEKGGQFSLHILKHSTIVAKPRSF

[2] = target: T2, Trans-cinnamate 4-monooxygenase (Helianthus tuberosus, UniProt Q04468); assay: Inhibition of Helianthus tuberosus CYP73A1
T2 sequence (Q04468 whole entry): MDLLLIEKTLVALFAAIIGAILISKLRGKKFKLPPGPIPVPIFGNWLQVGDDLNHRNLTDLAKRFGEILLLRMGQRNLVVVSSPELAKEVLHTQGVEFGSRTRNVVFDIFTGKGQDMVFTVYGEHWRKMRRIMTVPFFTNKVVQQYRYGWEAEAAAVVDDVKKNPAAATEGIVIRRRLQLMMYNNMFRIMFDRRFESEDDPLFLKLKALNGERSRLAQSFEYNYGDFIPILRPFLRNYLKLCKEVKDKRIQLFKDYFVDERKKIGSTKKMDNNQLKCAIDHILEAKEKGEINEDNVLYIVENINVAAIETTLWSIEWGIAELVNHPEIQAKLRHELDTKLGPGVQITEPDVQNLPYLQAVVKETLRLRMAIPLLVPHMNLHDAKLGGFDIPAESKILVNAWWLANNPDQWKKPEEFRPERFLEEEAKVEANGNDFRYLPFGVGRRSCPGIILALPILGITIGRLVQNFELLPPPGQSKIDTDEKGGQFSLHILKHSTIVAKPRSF

[3] = target: T3, Trans-cinnamate 4-monooxygenase (Populus kitakamiensis) (UniProt Q43054); assay: Inhibition of Populus sieboldii x Populus grandidentata CYP73A1 at 100 uM
T3 sequence (whole entry): T1 sequence (Q43054 whole entry)

| IC50 [1] | IC50 [2] | Compound | inhibition [3] |
| --- | --- | --- | --- |
| > 100000 nM | – | S=c1[nH]nc(-c2cccc3ccccc23)o1 | – |
| 15000 nM | – | Sc1nnc(-c2ccncc2)o1 | – |
| 1100 nM | – | Cc1cccc(-c2nnc(S)o2)c1 | – |
| 23000 nM | – | S=c1[nH]nc(-c2ccc(Cl)cc2)o1 | – |
| 3300 nM | – | Fc1ccc(-c2nnc(S)o2)cc1 | – |
| > 100000 nM | – | c1ccc(-c2nnco2)cc1 | – |
| > 100000 nM | – | Sc1nnc(-c2ccc3ccccc3c2)o1 | – |
| 130 nM | – | Fc1cccc(-c2nnc(S)o2)c1 | – |
| > 100000 nM | – | Sc1nnc(/C=C/c2ccccc2)o1 | – |
| 6200 nM | – | Sc1nnc(-c2cccs2)o1 | – |
| 420 nM | – | Sc1nnc(-c2cccc(Br)c2)o1 | – |
| 880 nM | 890 nM | O=C(O)c1c(O)ccc2ccccc12 | – |
| 5900 nM | – | Sc1nnc(-c2ccco2)o1 | – |
| > 100000 nM | – | FC(F)(F)c1cccc(-c2nnc(S)o2)c1 | – |
| > 100000 nM | – | Sc1nnc(-c2cc(Cl)cc(Cl)c2)o1 | – |
| 6100 nM | – | COc1cccc(-c2nnc(S)o2)c1 | – |
| > 100000 nM | – | CSc1nnc(-c2ccccc2)o1 | – |
| 980 nM | – | Sc1nnc(-c2ccccc2Br)o1 | – |
| > 100000 nM | – | S=c1[nH]nc(C2CCCCC2)o1 | – |
| 190 nM | – | Fc1ccccc1-c1nnc(S)o1 | – |
| 50000 nM | – | Cc1ccc(-c2nnc(S)o2)cc1 | – |
| 500 nM | – | Cc1ccccc1-c1nnc(S)o1 | – |
| 2000 nM | – | Sc1nnc(-c2cc(Cl)ccc2Cl)o1 | – |
| 6700 nM | – | O=c1[nH]nc(-c2ccccc2)o1 | – |
| 800 nM | – | S=c1[nH]nc(-c2ccccc2)o1 | – |
| 650 nM | – | Sc1nnc(-c2cccnc2)o1 | – |
| 580 nM | – | Sc1nnc(-c2ccccn2)o1 | – |
| 210 nM | – | Sc1nnc(-c2cccc(Cl)c2)o1 | – |
| 680 nM | – | Sc1nnc(-c2ccccc2Cl)o1 | – |

| Compound | IC50 [1] | IC50 [2] | inhibition [3] |
| --- | --- | --- | --- |
| O=C(O)c1ccc2c(c1)OCO2 [PIPERONYLIC ACID] | > 100000 nM | – | 58% |
